From patent US20260234157A1, “COMPOUND AND METHOD FOR TARGETED DEGRADATION OF ANDROGEN RECEPTOR” (Gan & Lee Pharmaceuticals Co., Ltd., priority 2023, published 2026)
Residue numbers refer to the chain shown, from its start. Like-named read-outs stand apart in the source and are kept apart here.

Experiments:
Assay type in all cases: cell-based
AR protein [1] = target: T1, AR protein (Homo sapiens, UniProt P10275); experiment: Degradation of AR protein in VCaP cells (Western blot); settings: 8 hours; for inhibition at 0.01 µM: read-out: Degradation rate of the AR protein in VCaP cells, 10 nM (%); for inhibition at 0.1 µM: read-out: Degradation rate of the AR protein in VCaP cells, 100 nM (%)
T1 construct: degradation activity of the compounds disclosed in the present disclosure on AR protein in VCaP cells; host or cells: VCaP
T1 sequence (P10275 1-920): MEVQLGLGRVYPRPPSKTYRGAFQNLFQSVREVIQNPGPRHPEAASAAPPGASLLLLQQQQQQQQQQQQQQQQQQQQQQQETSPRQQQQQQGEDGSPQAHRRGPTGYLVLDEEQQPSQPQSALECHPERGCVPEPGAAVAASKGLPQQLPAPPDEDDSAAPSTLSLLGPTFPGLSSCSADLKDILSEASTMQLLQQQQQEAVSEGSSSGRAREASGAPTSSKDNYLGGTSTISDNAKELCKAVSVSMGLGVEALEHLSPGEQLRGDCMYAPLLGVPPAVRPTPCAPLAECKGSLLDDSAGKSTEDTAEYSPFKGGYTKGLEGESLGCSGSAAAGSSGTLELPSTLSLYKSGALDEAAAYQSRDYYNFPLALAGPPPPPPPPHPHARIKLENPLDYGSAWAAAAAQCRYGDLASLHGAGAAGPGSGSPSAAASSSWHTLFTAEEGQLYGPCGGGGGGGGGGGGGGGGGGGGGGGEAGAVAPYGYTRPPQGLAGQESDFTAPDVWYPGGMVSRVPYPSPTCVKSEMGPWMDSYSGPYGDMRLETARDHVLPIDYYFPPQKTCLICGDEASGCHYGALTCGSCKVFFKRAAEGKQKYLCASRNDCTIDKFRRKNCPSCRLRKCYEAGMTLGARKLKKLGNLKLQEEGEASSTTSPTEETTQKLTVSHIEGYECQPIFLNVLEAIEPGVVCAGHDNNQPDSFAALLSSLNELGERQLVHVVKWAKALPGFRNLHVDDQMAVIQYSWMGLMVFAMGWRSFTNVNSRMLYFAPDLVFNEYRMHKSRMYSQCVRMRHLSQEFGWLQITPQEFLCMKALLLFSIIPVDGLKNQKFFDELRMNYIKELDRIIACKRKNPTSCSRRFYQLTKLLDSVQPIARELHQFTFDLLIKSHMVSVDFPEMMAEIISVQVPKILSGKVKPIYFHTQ
In short: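 VCaP cells treated with compound alongside solvent controls for 8 h, then lysed in RIPA and protein quantified by BCA. AR detected by SDS-PAGE/Western blot with infrared imaging. Degradation rate calculated from band grayscale, with GAPDH as internal reference.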

AR protein [2] = target: T2, AR protein (Homo sapiens, UniProt P10275, T878A); experiment: Degradation of AR protein in LNCaP cells (Western blot); settings: for inhibition at 0.01 µM: read-out: Degradation rates of the AR protein in LNCaP cells, 10 nM (%); for inhibition at 0.1 µM: read-out: Degradation rates of the AR protein in LNCaP cells, 100 nM (%)
T2 construct: degradation activity of the compounds disclosed in the present disclosure on AR protein in LNCaP cells; host or cells: LNCaP FGC
T2 sequence (P10275 1-920 T878A): T1 sequence (P10275 1-920) with T878A
In short: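 AR assessed by SDS-PAGE/Western blot with infrared imaging; band greyscale normalised to GAPDH gave percent degradation.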

LNCaP FGC cells = experiment: Inhibition of proliferation of LNCaP cells (WST-8); settings: Homo sapiens, LNCaP, 96 h
Experimental: The cells were cultured in a cell culture incubator with 5% CO2 at 37° C. overnight. […] On the sixth day, 96 well plates were taken out, and 20 μL of WST-8 (Beytime, C0040) reagent was added to each well.

VCaP cells = experiment: Inhibition of proliferation of VCaP cells (WST-8); settings: Homo sapiens, read-out: IC50 for inhibiting the proliferation of VCaP cells
Experimental: The inhibitory activity of the compounds disclosed in the present disclosure on the proliferation of VCaP cells
On the first day of the experiment, […] were inoculated in 96 well plates at a density of 15000 cells per well using DMEM medium containing 10% fetal bovine serum, with 100 μL of cell suspension per well. The cells were cultured in a cell culture incubator with 5% CO2 at 37° C. overnight. […] On the ninth day, 96 well plates were taken out, and 20 μL of WST-8 (Beytime, C0040) reagent was added to each well.

[3] = LNCaP cells, compound 10 nM, 8 hours, Western blot grayscale, GAPDH internal reference
[4] = LNCaP cells, compound 100 nM, 8 hours, Western blot grayscale, GAPDH internal reference
[5] = LNCaP FGC cells, 96 hours, WST-8 absorbance at 450 nm, read-out: IC50 for inhibiting the proliferation of LNCaP cells
[6] = VCaP cells, 168 hours, WST-8 absorbance at 450 nm
[7] = read-out: IC50 for inhibiting the proliferation of LNCaP cells, LNCaP FGC cells, 96 hours, WST-8 absorbance at 450 nm

CC1(CN2CC3(CCc4cc5c(cc4O3)C(=O)N(C3CCC(=O)NC3=O)C5=O)C2)CCN(c2ccc(C(=O)N[C@H]3CC[C@H](Oc4ccc(C#N)c(Cl)c4)CC3)nn2)CC1 (stereo partly shown) [Compound 2]
inhibition at 0.01 µM (AR protein [1]; compound at 10 nM): 21%
inhibition at 0.1 µM (AR protein [1]; compound at 100 nM): 56%
inhibition at 0.01 µM (AR protein [2]; [3]): 66%
inhibition at 0.1 µM (AR protein [2]; [4]): 50%
IC50 (LNCaP FGC cells; [5]): 1250 nM
IC50 (VCaP cells; [6]): 3910 nM

N#Cc1ccc(O[C@H]2CC[C@H](NC(=O)c3ccc(N4CC(N5CC6(CCc7cc8c(cc7O6)C(=O)N(C6CCC(=O)NC6=O)C8=O)C5)C4)nn3)CC2)cc1Cl (stereo partly shown) [Compound 5]
inhibition at 0.01 µM (AR protein [1]; compound at 10 nM): 41%
inhibition at 0.1 µM (AR protein [1]; compound at 100 nM): 51%
inhibition at 0.01 µM (AR protein [2]; LNCaP, 8 h): 51%
inhibition at 0.1 µM (AR protein [2]; LNCaP, 8 h): 35%
IC50 (LNCaP FGC cells; [7]): 710 nM
IC50 (VCaP cells; VCaP, 168 h): 4500 nM

N#Cc1ccc(O[C@H]2CC[C@H](NC(=O)c3ccc(N4CC5(CCc6cc7c(cc6O5)C(=O)N(C5CCC(=O)NC5=O)C7=O)C4)nn3)CC2)cc1Cl (stereo partly shown) [Compound 6]
inhibition at 0.01 µM (AR protein [1]; compound at 10 nM): 13%
inhibition at 0.1 µM (AR protein [1]; compound at 100 nM): 28%
inhibition at 0.01 µM (AR protein [2]; [3]): 58%
inhibition at 0.1 µM (AR protein [2]; [4]): 46%
IC50 (LNCaP FGC cells; [5]): 5170 nM
IC50 (VCaP cells; [6]): 7500 nM

N#Cc1ccc(O[C@H]2CC[C@H](NC(=O)c3ccc(N4CCC(CN5CC6(CCc7cc8c(cc7O6)CN(C6CCC(=O)NC6=O)C8=O)C5)CC4)nn3)CC2)cc1Cl (stereo partly shown) [Compound 7]
inhibition at 0.01 µM (AR protein [1]; compound at 10 nM): 72%
inhibition at 0.1 µM (AR protein [1]; compound at 100 nM): 79%
inhibition at 0.01 µM (AR protein [2]; [3]): 86%
inhibition at 0.1 µM (AR protein [2]; [4]): 79%
IC50 (LNCaP FGC cells; [5]): 1570 nM
IC50 (VCaP cells; [6]): 3540 nM

N#Cc1ccc(O[C@H]2CC[C@H](NC(=O)c3ccc(N4CCC(CN5CC6(CCc7cc8c(cc7O6)C(=O)N(C6CCC(=O)NC6=O)C8)C5)CC4)nn3)CC2)cc1Cl (stereo partly shown) [Compound 8]
inhibition at 0.01 µM (AR protein [1]; compound at 10 nM): 24%
inhibition at 0.1 µM (AR protein [1]; compound at 100 nM): 76%
inhibition at 0.01 µM (AR protein [2]; [3]): 78%
inhibition at 0.1 µM (AR protein [2]; [4]): 67%
IC50 (LNCaP FGC cells; [5]): 2090 nM
IC50 (VCaP cells; [6]): 1 nM

CC1(CN2CCC3(CCc4cc5c(cc4O3)C(=O)N(C3CCC(=O)NC3=O)C5=O)CC2)CCN(c2ccc(C(=O)N[C@H]3CC[C@H](Oc4ccc(C#N)c(Cl)c4)CC3)nn2)CC1 (stereo partly shown) [Compound 17]
inhibition at 0.01 µM (AR protein [1]; compound at 10 nM): 39%
inhibition at 0.1 µM (AR protein [1]; compound at 100 nM): 80%
inhibition at 0.01 µM (AR protein [2]; [3]): 35%
inhibition at 0.1 µM (AR protein [2]; [4]): 65%
IC50 (LNCaP FGC cells; [5]): 800 nM
IC50 (VCaP cells; [6]): 580 nM

N#Cc1ccc(O[C@H]2CC[C@H](NC(=O)c3ccc(N4CCC(CN5CCC6(CC5)Oc5cc7c(cc5CC6(F)F)C(=O)N(C5CCC(=O)NC5=O)C7=O)CC4)nn3)CC2)cc1Cl (stereo partly shown) [Compound 18]
inhibition at 0.01 µM (AR protein [1]; compound at 10 nM): 59%
inhibition at 0.1 µM (AR protein [1]; compound at 100 nM): 69%
inhibition at 0.01 µM (AR protein [2]; [3]): 7%
inhibition at 0.1 µM (AR protein [2]; [4]): 57%
IC50 (LNCaP FGC cells; [5]): 4940 nM
IC50 (VCaP cells; [6]): 110 nM

N#Cc1ccc(O[C@H]2CC[C@H](NC(=O)c3ccc(N4CC(CN5CCC6(CCc7cc8c(cc7O6)C(=O)N(C6CCC(=O)NC6=O)C8=O)CC5)C4)nn3)CC2)cc1Cl (stereo partly shown) [Compound 20]
inhibition at 0.01 µM (AR protein [1]; compound at 10 nM): 41%
inhibition at 0.1 µM (AR protein [1]; compound at 100 nM): 54%
inhibition at 0.01 µM (AR protein [2]; [3]): 13%
inhibition at 0.1 µM (AR protein [2]; [4]): 48%
IC50 (LNCaP FGC cells; [5]): 1000 nM
IC50 (VCaP cells; [6]): 170 nM

N#Cc1ccc(O[C@H]2CC[C@H](NC(=O)c3ccc(N4CC[C@H](CN5CCC6(CCc7cc8c(cc7O6)C(=O)N(C6CCC(=O)NC6=O)C8=O)CC5)C4)nn3)CC2)cc1Cl (stereo partly shown) [Compound 22]
inhibition at 0.01 µM (AR protein [1]; compound at 10 nM): 58%
inhibition at 0.1 µM (AR protein [1]; compound at 100 nM): 64%
inhibition at 0.01 µM (AR protein [2]; [3]): 71%
inhibition at 0.1 µM (AR protein [2]; [4]): 84%
IC50 (LNCaP FGC cells; [5]): 600 nM
IC50 (VCaP cells; [6]): 230 nM

N#Cc1ccc(O[C@H]2CC[C@H](NC(=O)c3ccc(N4CC(N5CCC6(CCc7cc8c(cc7O6)C(=O)N(C6CCC(=O)NC6=O)C8=O)CC5)C4)nn3)CC2)cc1Cl (stereo partly shown) [Compound 25]
inhibition at 0.01 µM (AR protein [1]; compound at 10 nM): 13%
inhibition at 0.1 µM (AR protein [1]; compound at 100 nM): 32%
inhibition at 0.01 µM (AR protein [2]; LNCaP, 8 h): 49%
inhibition at 0.1 µM (AR protein [2]; LNCaP, 8 h): 43%
IC50 (LNCaP FGC cells; [7]): 390 nM
IC50 (VCaP cells; VCaP, 168 h): 910 nM

N#Cc1ccc(O[C@H]2CC[C@H](NC(=O)c3ccc(N4CCC(N5CCC6(CCc7cc8c(cc7O6)C(=O)N(C6CCC(=O)NC6=O)C8=O)CC5)CC4)nn3)CC2)cc1Cl (stereo partly shown) [Compound 26]
inhibition at 0.01 µM (AR protein [1]; compound at 10 nM): 48%
inhibition at 0.1 µM (AR protein [1]; compound at 100 nM): 56%
inhibition at 0.01 µM (AR protein [2]; LNCaP, 8 h): 61%
inhibition at 0.1 µM (AR protein [2]; LNCaP, 8 h): 56%
IC50 (LNCaP FGC cells; [7]): 1200 nM
IC50 (VCaP cells; VCaP, 168 h): 750 nM

N#Cc1ccc(O[C@H]2CC[C@H](NC(=O)c3ccc(N4CCC(N5CCC6(CCc7cc8c(cc7O6)C(=O)N(C6CCC(=O)NC6=O)C8=O)CC5)C(F)(F)C4)nn3)CC2)cc1Cl (stereo partly shown) [Compound 27]
inhibition at 0.01 µM (AR protein [1]; compound at 10 nM): 33%
inhibition at 0.1 µM (AR protein [1]; compound at 100 nM): 44%
inhibition at 0.01 µM (AR protein [2]; [3]): 14%
inhibition at 0.1 µM (AR protein [2]; [4]): 39%
IC50 (LNCaP FGC cells; [5]): 110 nM
IC50 (VCaP cells; [6]): 380 nM

N#Cc1ccc(O[C@H]2CC[C@H](NC(=O)c3ccc(N4CCC5(CCc6cc7c(cc6O5)C(=O)N(C5CCC(=O)NC5=O)C7=O)CC4)nn3)CC2)cc1Cl (stereo partly shown) [Compound 28]
inhibition at 0.01 µM (AR protein [1]; compound at 10 nM): 9%
inhibition at 0.1 µM (AR protein [1]; compound at 100 nM): 35%
inhibition at 0.01 µM (AR protein [2]; [3]): 58%
inhibition at 0.1 µM (AR protein [2]; [4]): 60%
IC50 (LNCaP FGC cells; [5]): 3900 nM
IC50 (VCaP cells; [6]): 6200 nM

N#Cc1ccc(O[C@H]2CC[C@H](NC(=O)c3ccc(N4CCC(C(=O)N5CCC(N6CCC7(CC6)COc6c7ccc7c6CN(C6CCC(=O)NC6=O)C7=O)CC5)CC4)nn3)CC2)cc1Cl (stereo partly shown) [Compound 161]
Degradation rate of the AR protein in VCaP cells, 10 nM (%) (AR protein [1]; compound at 10 nM): 47%
Degradation rate of the AR protein in VCaP cells, 100 nM (%) (AR protein [1]; compound at 100 nM): 84%
IC50 (LNCaP FGC cells; [5]): 440 nM
IC50 (VCaP cells; [6]): 3 nM
